Nine molecules from ChEMBL document CHEMBL1125709, “Substituent effect on the stereochemistry of H2-receptor antagonists of the phenylformamidine series. A conformation-dependent mode of interaction with the H2 receptor” (J Med Chem, 1991) can be followed below.

Each structure is given as a SMILES string.

Sequence of Histamine H2 receptor (P47747 whole entry): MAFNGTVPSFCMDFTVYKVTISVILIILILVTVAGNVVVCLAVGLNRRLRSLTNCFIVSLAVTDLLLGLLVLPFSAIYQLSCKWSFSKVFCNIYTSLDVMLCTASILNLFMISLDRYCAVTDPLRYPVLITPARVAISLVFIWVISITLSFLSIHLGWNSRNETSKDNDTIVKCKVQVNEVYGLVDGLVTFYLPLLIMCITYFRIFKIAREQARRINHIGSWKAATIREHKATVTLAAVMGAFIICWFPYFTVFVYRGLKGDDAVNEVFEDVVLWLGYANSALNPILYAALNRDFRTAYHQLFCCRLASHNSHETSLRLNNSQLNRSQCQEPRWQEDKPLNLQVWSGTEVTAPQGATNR

This assay concerns the target Histamine H2 receptor (Cavia porcellus, UniProt P47747). The experiment in a line: Histamine H2 receptor antagonism on the right atrium of the guinea pig. The format is functional, tissue-based, Cardiac atrium. To be noted: read-out: pA2 (converted).
As to `CC/N=C/Nc1ccc(-c2c[nH]cn2)cc1`, the Kb was 42.7 nM. In the case of `CC(C)CN/C=N/c1ccc(-c2c[nH]cn2)cc1` it was 5.25 nM. Under `CCC(C)(C)N/C=N/c1ccc(-c2c[nH]cn2)cc1` stands 7.59 nM. Under `CCCCN/C=N/c1ccc(-c2c[nH]cn2)cc1` stands 11.2 nM; under `CCC(CC)N/C=N/c1ccc(-c2c[nH]cn2)cc1`, 31.6 nM; under `CC(C)/N=C/Nc1ccc(-c2c[nH]cn2)cc1`, 28.2 nM. Take `CN/C=N/c1ccc(-c2c[nH]cn2)cc1`: the Kb was 1200 nM. Under `CCC(C)N/C=N/c1ccc(-c2c[nH]cn2)cc1` (centres undefined) stands 14.1 nM. Under `CC(C)(C)/N=C/Nc1ccc(-c2c[nH]cn2)cc1` stands 11.2 nM.
